According to patent US7217815B2, “2-beta -modified-6-substituted adenosine analogs and their use as antiviral agents” (Valeant Pharmaceuticals North America, priority 2002, dated 2007):

What was measured:
[1] = tested on: HCV replicon RNA in replicon cells (Huh-7); assay: HCV replicon assay; format: cell-based; settings: Huh-7 replicon cells, 3 days incubation, reduction of HCV RNA (Quantigene)
Experimental: The replicon cells (Huh-7) contain replicating HCV replicon RNA, which was modified in the structural region (replacing the structural region with a neomycin resistance marker). Survival of the replicon cells under G418 selection relies on the replication of HCV RNA and subsequently expression of neomycin phosphoryltransferase. The ability of modified nucleoside libraries and compounds to suppress HCV RNA replication was determined using the Quantigene Assay Kit from Bayer. The assay measures the reduction of HCV RNA molecules in the treated cells. Replicon cells were incubated at 37° C. for 3 days in the presence of nucleoside libraries and compounds before harvested for detection. HCV subgenomic replicon cell line was provided by Dr. Bartenschlager. The assay protocol was modified based on literature procedure (V. Lohmann, F. Korner, J. O. Koch, U. Herian, L. Theilmann, R. Bartenschlager, Science, 1999, 285, 110–113).

[2] = tested on: Bovine viral diarrhea virus (BVDV) (strain NADL); assay: Assay for inhibition of BVDV; format: cell-based; settings: MDBK cells
Experimental: Bovine viral diarrhea virus (BVDV) (strain NADL) was provided by Dr. Ruben Donis and propagated in MDBK cells (ATCC). The nucleoside libraries and compounds were tested utilizing the modified protocol (V. B. Vassilev, M. S. Collett, R. O. Donis, J. Viol. 1997, 71, 471–478; S. G. Bagginski, D. C. Pevear, M. Seipel, S. C. C. Sun, C. A. Benetatos, S. K. Chunduru, C. M. Rice, M. S. Collett, Proc. Natl. Acad. Sci. U.S.A. 2000, 97, 7981–7986)

Compound	EC50 [1] [µM]	EC50 [2] [µM]	EC50 ([1]; Hepatitis C virus, 72 h) [µM]	EC50 ([2]; Bovine viral diarrhea virus isolates and strains) [µM]
CSc1cccc(Nc2ncnc3c2ncn3[C@@H]2O[C@H](CO)[C@@H](O)[C@@]2(C)O)c1 [Compound S1-4, N^6-[3-(Methylthio)phenyl]-9H-(2′-β-C-methyl-β-D-ribofuranosyl)adenine]	> 100	> 100		
C[C@@]1(O)[C@H](O)[C@@H](CO)O[C@H]1n1cnc2c(NC[C@H]3CCCO3)ncnc21 [Compound S1-6, N^6-(R-Tetrahydrofurfuryl)-9H-(2′-β-C-methyl-β-D-ribofuranosyl)adenine]	> 100	> 100		
CCOc1ccccc1CNc1ncnc2c1ncn2[C@@H]1O[C@H](CO)[C@@H](O)[C@@]1(C)O [Compound S1-7, N^6-(2-Ethoxybenzyl)-9H-(2′-β-C-methyl-β-D-ribofuranosyl)adenine]	10 to 100	> 100		
CC1(C)OCC(CNc2ncnc3c2ncn3[C@@H]2O[C@H](CO)[C@@H](O)[C@@]2(C)O)O1 (stereo partly drawn) [Compound S1-8, N^6-(2,2-Dimethyl-1,3-dioxolane-4-methyl)-9H-(2′-β-C-methyl-β-D-ribofuranosyl)adenine]	> 100	> 100		
C[C@@]1(O)[C@H](O)[C@@H](CO)O[C@H]1n1cnc2c(NCCO)ncnc21 [Compound S1-9, N^6-[2-(Hydroxy)ethyl]-9H-(2′-β-C-methyl-β-D-ribofuranosyl)adenine]	10 to 100	> 100		
C[C@@]1(O)[C@H](O)[C@@H](CO)O[C@H]1n1cnc2c(NN)ncnc21 [Compound S1-11, 6-(Hydrazinyl)-9H-(2′-β-C-methyl-β-D-ribofuranosyl)purine]	< 10	25 to 100		
CN(C)Nc1ncnc2c1ncn2[C@@H]1O[C@H](CO)[C@@H](O)[C@@]1(C)O [Compound S1-12, 6-(N,N-Dimethylhydrazino)-9H-(2′-β-C-methyl-β-D-ribofuranosyl)purine]	< 10	< 25		
C[C@@]1(O)[C@H](O)[C@@H](CO)O[C@H]1n1cnc2c(N(N)CCO)ncnc21 [Compound S1-13, 6-[N^1-(Hydroxyethyl)hydrazino]-9H-(2′-β-C-methyl-β-D-ribofuranosyl)purine]	< 10	> 100		
C[C@@]1(O)[C@H](O)[C@@H](CO)O[C@H]1n1cnc2c(NNC=O)ncnc21 [Compound S1-14, 6-[(N^2-formyl)hydrazino]-9H-(2′-β-C-methyl-β-D-ribofuranosyl)purine]	10 to 100	> 100		
CN(N)c1ncnc2c1ncn2[C@@H]1O[C@H](CO)[C@@H](O)[C@@]1(C)O [Compound S1-15, 6-(N^1-methylhydrazino)-9H-(2′-β-C-methyl-β-D-ribofuranosyl)purine]	< 10	> 100		
COC(=O)NNc1ncnc2c1ncn2[C@@H]1O[C@H](CO)[C@@H](O)[C@@]1(C)O [Compound S1-16]	< 10	25 to 100		
CC(=O)NNc1ncnc2c1ncn2[C@@H]1O[C@H](CO)[C@@H](O)[C@@]1(C)O [Compound S1-17, 6-[N^2-(Acetyl)hydrazino]-9H-(2′-β-C-methyl-β-D-ribofuranosyl)purine]	< 10	< 25		
C[C@@]1(O)[C@H](O)[C@@H](CO)O[C@H]1n1cnc2c(NNS(C)(=O)=O)ncnc21 [Compound S1-18]	< 10	25 to 100		
C[C@@]1(O)[C@H](O)[C@@H](CO)O[C@H]1n1cnc2c(NO)ncnc21 [Compound S1-19, 6-Hydroxyamino-9H-(2′-β-C-methyl-β-D-ribofuranosyl)purine]	< 10	25 to 100		
CON(C)c1ncnc2c1ncn2[C@@H]1O[C@H](CO)[C@@H](O)[C@@]1(C)O [Compound S1-20, 6-(N,O-Dimethylhydroxylamine)-9H-(2′-β-C-methyl-β-D-ribofuranosyl)purine]	10 to 100	> 100		
CC(C)(C)OC(=O)NOc1ncnc2c1ncn2[C@@H]1O[C@H](CO)[C@@H](O)[C@@]1(C)O [Compound S1-21, 6-(N-(t-Butyloxycarbonyl)aminoxy]-9H-(2′-β-C-methyl-β-D-ribofuranosyl)purine]	< 10	> 100		
C[C@@]1(O)[C@H](O)[C@@H](CO)O[C@H]1n1cnc2c(ONC(=O)OCc3ccccc3)ncnc21 [Compound S1-22, 6-[(N-Benzyloxycarbonyl)aminoxy]-9H-(2′-β-C-methyl-β-D-ribofuranosyl)purine]	< 10	> 100		
C[C@@]1(O)[C@H](O)[C@@H](CO)O[C@H]1n1cnc2c(NCCN)ncnc21 [Compound S2-1, N^6-(2-Aminoethyl)-9H-(2′-β-C-methyl-β-D-ribofuranosyl)adenine]	< 10	25 to 100		
C[C@@]1(O)[C@H](O)[C@@H](CO)O[C@H]1n1cnc2c(NCCNc3ncnc4c3ncn4[C@@H]3O[C@H](CO)[C@@H](O)[C@@]3(C)O)ncnc21 [Compound S2-2, N,N′-Bis[N^6-9H-(2′-β-C-methyl-β-D-ribofuranosyl)adenin-6-yl]ethylenediamine]			10 to 100	> 100
N^6-(2-Phenylpropyl)-9H-(2′-β-C-methyl-β-D-ribofuranosyl)adenine [Compound S1-5]	> 100	> 100		
